Source: patent US7425579B2, “Methods for inhibiting activity of polyamine transporters” (Universite Laval, priority 1998, dated 2008)

Tests used:
[1] = tested on: MDA-MB-231 human breast cancer xenograft; assay: MDA-MB-231 human breast cancer xenograft in nude mice; format: in vivo, immunodeficient CD-1 mice
Experimental: (§1) In particular, the mice have been treated with the following compounds: BNSD-X (1% w/v) (●), 0.3 (w/v) DFMO (□), 0.3% DFMO+BNSD-X (▪), 1% (w/v) DFMO (Δ), or 1% DFMO+BNSD-X (▴). Drugs were dissolved in drinking water which was given ad libitum to the animals. Control mice (∘) received distilled water only;
as §1, with “only; and” for “only;”
In particular, these compounds are BNSD-X (1% w/v), 0.3 (w/v) DFMO, 0.3% DFMO+BNSD-X, 1% (w/v) DFMO, or 1% DFMO+BNSD-X Drugs were dissolved in drinking water which was given ad libitum to the animals. Control mice received distilled water only.
For human xenograft experiments, athymic CD-1 mice were inoculated with 5×10^6 MDA-MB-231 human breast cancer cells (grown in tissue culture incubators to mid-exponential phase) in both sides of the inguinal mammary fat pad. After ˜2 weeks, when the tumor had reached a diameter ˜4 mm (as measured with a caliper), control mice were paired to treated ones in accordance with tumor volume (time zero). Animals were allowed free access to water containing 0, 0.3 or 1% DFMO (w/v), plus or minus 1% (w/v) BNSD-X (7 mice/experimental group). Tumor volume (V) was measured twice weekly with a caliper in 2 dimensions using the approximation V=(L×w^2)/2, where L is the length and w is the width of the xenograft (Bandyopadhyay et al., (2002) Cancer Res. 62:4690-4695). Animals were sacrificed after 39 d (i.e. when tumor size in control mice had reached about 500 mm^3). Mammary tumors were be excised and weighed.
The efficacy of BNSD-X as a chemotherapeutic agent was assessed in the MDA-MB-231 model of human breast cancer xenograft in the nude mouse, a model which is known to be sensitive to polyamine depletion by DFMO (Weeks et al., (2000) Exp Cell Res. 261:293-302). For that purpose, MDA-MB-231 cells were injected in the left and right mammary fat pads of immunodeficient CD-1 mice. Mice were then allowed to drink either BNSD-X at the optimal concentration (1%, w/v), as well as DFMO at either 0.3% or 1% (w/v) plus or minus 1% BNSD-X for 39 days before sacrificing the animals and measuring total final tumor mass (FIG. 12-14). The BNSD-X solution alone or with 0.3% DFMO led to a slight (˜7%) reduction of body weight, which was attenuated by the addition of 1% DFMO (FIG. 13) However, this effect of body weight could largely be accounted on the decreased tumor burden in the BNSD-X treated animals (FIG. 14). […]

T-47D cells = assay: Reversal of DFMO-induced cytostasis by exogenous spermidine in T-47D cells; format: cell-based, human; conditions: 50 μM BNSD-X (167-fold excess over 0.3 μM spermidine); 2 mM DFMO
Experimental: FIGS. 6A, 6B, 6C and 6D are graph showing that antagonism of DFMO-induced cytostasis by exogenous spermidine depends on the polyamine and linker structure of the compounds used in a method according to a preferred embodiment of the invention. In particular, T-47D cells were grown for 8-9 d with the indicated concentrations of spermidine in medium containing 1 mM aminoguanidine, in the presence of DFMO (●), transport inhibitor (□), DFMO plus transport inhibitor (▪), or in the absence of either agent (∘), and total DNA content per culture was then determined. Panels A, B, C, and D describe the effect of BNSD-X, BSD-X, BNSD-3 and BSD-3, respectively. Data are presented as the mean±SD for triplicate cultures from one out of at least two identical experiments;
FIGS. 8A and 8B are graphs representing the time course of the effect of a compound used in a method according to a preferred embodiment of the invention on rescue of DFMO-induced cytostasis by exogenous spermidine. In particular, at time zero, T-47D (panel A) or CHO-K1 (panel B) were seeded at 1×10^4 or 5×10^3 cells/well, respectively, in medium containing 1 mM aminoguanidine, plus either 0.3 μM spermidine (Spd, ●), 2 mM DFMO (□), Spd+DFMO (▪), 50 μM (A) or 100 μM (B) BNSD-X (Δ), BNSD-X+Spd (▴), BNSD-X+DFMO (□), BNSD-X+Spd+DFMO (▾), or vehicle only (∘). At the indicated time, total DNA content/well was determined. Data are presented as the mean±SD for triplicate cultures from one representative experiment;
To determine the ability of polyamine transport antagonists to potentiate DFMO-induced inhibition of cell proliferation in the presence of exogenous polyamines, cells were grown for the indicated period in growth medium supplemented with 1 mM aminoguanidine, and either DFMO (1 to 5 mM), the indicated transport inhibitor (50 or 100 μM), or the combination thereof, as well as increasing concentrations of spermidine (0.1 to 300 μM). Fresh medium was added every other day, and cell mass was determined at various time points during the period of exponential growth, or at the end of the experimental period. For the latter experiments, the FBS supplement was replaced with dextran-coated charcoal-treated FBS (5%, v/v) plus 0.5 μg/ml insulin in the case of T-47D, ZR-75-1 and MCF-7 cells (U.S. Pat. No. 6,083,496).

## NCCCN(CCCN)Cc1ccc(CN(CCCN)CCCN)cc1 [28a, N,N,N′,N′-tetrakis-(3-aminopropyl)-p-diaminoxylene]
[1]; 1% (w/v) BNSD-X alone in drinking water
  reduction of body weight: ~7%
[1]; 1% (w/v) BNSD-X as a single agent, 39-d treatment
  decrease of total tumor mass: 65±10%
T-47D cells
  effect on growth inhibition by DFMO, T-47D: did not markedly increase the extent of growth inhibition observed with DFMO alone
